Laboratory results: publication PMC5101480 (Scientific Reports, 2016)
Values belong to the molecule of their own block, whether it stands above or below them.

Columns and labels:
[1] = system: OP91 in HeLa TRex Flp-In cells; test: Steady state OP91 (model MLP) levels on co-expression, quantitative western blotting; format: cell-based; settings: co-expression of SGTA-V5 compared with K160E/R164E mutant or PEX19 control; normalised to tubulin; n = 3; 24 h transfection, 24 h induction
Description: However, the ability of exogenous SGTA to enhance steady state MLP levels is offset when key residues of the carboxylate clamp, located in its TPR domain, are mutated. […] These finding are consistent with the proposal that a TPR based interaction of exogenous SGTA contributes to its effects on steady state MLP levels. […]
Figure 5 The SGTA-Rpn13 interaction alters steady state levels of a model MLP. […] Cells were then harvested directly into sample buffer and analysed by western blotting using primary antibodies to the N-terminus of opsin (OP91), the V5 tag (PEX19 and SGTA) or tubulin (loading control) in combination with secondary antibodies labelled with infrared dyes (LiCor) in order to produce quantitative signals as previously described. (B) OP91 signals were quantified (see Materials and Methods) and normalised to the tubulin loading control, values show standard errors for n = 3. […] (F) OP91 signals were quantified as described for (B), values show standard errors for n = 3. […]

[2] = system: OP91 in HeLa TRex Flp-In cells; settings: overexpression of exogenous SGTA, model MLPs including OP91; cited from earlier work
Description: However, the ability of exogenous SGTA to enhance steady state MLP levels is offset when key residues of the carboxylate clamp, located in its TPR domain, are mutated. We recapitulated this experiment ...

[3] = target: T1, TPR domain of SGTA (SGTA_TPR) (Homo sapiens, UniProt O43765); test: Paramagnetic relaxation enhancement (PRE) of 15N-labelled SGTA_TPR by MTSL labelled K398C Rpn13_260-407; format: binding; settings: MTSL at K398C; 15N-labelled SGTA_TPR to spin labelled Rpn13 1:1.2; pH 6.0; residues Met-102, Lys-103, Glu-105, Lys-137, Ser-170, Asn-173, Ser-197, Lys-200, Ile-201, Glu-203, Ser-211
T1 construct: thioredoxin A (TxA) fusion (N, cleaved yes); hexahistidine tag (N, cleaved yes); made in house; host or cells: E. coli BL21(DE3) Rosetta
T1 sequence (O43765 84-211): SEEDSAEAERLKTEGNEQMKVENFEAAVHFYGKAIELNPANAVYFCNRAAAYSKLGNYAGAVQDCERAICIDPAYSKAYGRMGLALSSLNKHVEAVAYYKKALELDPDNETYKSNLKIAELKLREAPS
Procedure: Using CSP experiments combined with available mutagenesis data, an initial model of a 1:1 complex was generated by a HADDOCK based semi-rigid, data-driven approach using the DMSLD pentapeptide coordinates from the solution NMR structure of Rpn13 (PDB accession code: 2KR0) and the crystal structure of SGTA_TPR (PDB accession code: 2VYI). The three lowest energy HADDOCK clusters of the SGTA_TPR/DMSLD complex were analysed (Figure S7 and Table S1). […] Proximity dependent line broadening of ^15N-labelled SGTA_TPR backbone amide signals was monitored for intermolecular paramagnetic relaxation enhancement (PRE) effects upon addition of MTSL labelled K398C Rpn13_260-407 (Fig. 4B). Significant line broadening effects were observed upon binding in backbone amide peaks of SGTA_TPR residues Met-102, Lys-103, Glu-105, Lys-137, Ser-170, Asn-173, Ser-197, Lys-200, Ile-201, Glu-203, Ser-211, all present on the lower edge of its concave surface lining the entry to the central groove (Fig. 4C,D).
The Rpn13 C-terminal residue Lys 398 was mutated to a cysteine for paramagnetic spin labelling studies. Mutant Rpn13_260-407 was treated with excess TCEP for 2 hours to ensure cysteines were reduced, followed by dialysis against 10 mM potassium phosphate pH 6.0, 100 mM NaCl buffer to remove excess TCEP. […]

Molecule: SGTA-V5: exogenous V5-tagged SGTA overexpressed from plasmid
change in steady state OP91 level [1]: three-fold increase | steady state MLP levels, earlier studies [2]: typically increases the steady-state levels of model MLPs

distance of paramagnetic probe from SGTA_TPR residues with significant line broadening [3]: ≤ 20 Å
B1: K398C Rpn13_260-407: Rpn13_260-407 K398C mutant carrying site-directed paramagnetic spin-label (MTSL) (protein, UniProt Q16186 260-407, looked up, variant K398C)
chain: QPIQLSDLQSILATMNVPAGPAGGQQVDLASVLTPEIMAPILANADVQERLLPYLPSGESLPQTADEIQNTLTSPQFQQALGMFSAALASGQLGPLMCQFGLPAEAVEAANKGDVEAFAKAMQNNAKPEQKEGDTKDKCDEEEDMSLD
modifications: MTSL spin label
